Read-outs that look alike come from different tables or passages of the source.
Assays:
[1] = test system: human lung cancer cell lines; assay: Cytotoxicity, NCI disease-oriented antitumor screening, lung cancer cell lines; assay type: cell-based; details: range of GI50's for the lung cancer cell lines, read-out: Cytotoxic activity (GI50), lung
Source text: (§1) Compounds were subjected to the disease-oriented antitumor screening on 60 cancer cell lines in the National Cancer Institute of the U.S.A. (Grever, M. R. et al., Seminars in Oncology 1992, 19, 622~638). Results of cytotoxicity are summarized in Table 1, GI50 values represent the concentrations corresponding to 50% of growth inhibition.

[2] = test system: human renal cancer cell lines; assay: Cytotoxicity, NCI disease-oriented antitumor screening, renal cancer cell lines; assay type: cell-based; details: range of GI50's for the renal cancer cell lines, read-out: Cytotoxic activity (GI50), renal
Source text: as §1

CNS SNB75 cell line = assay: Cytotoxicity, NCI disease-oriented antitumor screening, CNS SNB75 cell line; assay type: cell-based; details: Homo sapiens, SNB-75
Source text: as §1

[3] = test system: human CNS tumor cell lines; assay: Cytotoxicity, NCI disease-oriented antitumor screening, CNS tumor cell lines; assay type: cell-based; details: for selective cytotoxicity on human CNS tumor cell lines: in words
Source text: as §1

[4] = test system: human prostate cancer cell lines; assay: Cytotoxicity, NCI disease-oriented antitumor screening, prostate cancer cell lines; assay type: cell-based; details: range of GI50's for the prostate cancer cell lines, read-out: Cytotoxic activity (GI50), prostate
Source text: as §1

[5] = test system: human breast cancer cell lines; assay: Cytotoxicity, NCI disease-oriented antitumor screening, breast cancer cell lines; assay type: cell-based; details: range of GI50's for the breast cancer cell lines, read-out: Cytotoxic activity (GI50), breast
Source text: as §1

[6] = test system: human colon cancer cell lines; assay: Cytotoxicity, NCI disease-oriented antitumor screening, colon cancer cell lines; assay type: cell-based; details: range of GI50's for the colon cancer cell lines, read-out: Cytotoxic activity (GI50), colon
Source text: as §1

[7] = test system: human ovarian cancer cell lines; assay: Cytotoxicity, NCI disease-oriented antitumor screening, ovarian cancer cell lines; assay type: cell-based; details: range of GI50's for the ovarian cancer cell lines, read-out: Cytotoxic activity (GI50), ovarian
Source text: as §1

[8] = test system: glycinamide ribonucleotide transformylase (GAR-Tfase); details: in words; Baldwin et al, 1991; cited from earlier work
CNS U251 cell line = assay: Cytotoxicity, NCI disease-oriented antitumor screening, CNS U251 cell line; assay type: cell-based; details: Homo sapiens, U-251, read-out: Cytotoxic activity (GI50), CNS
Source text: as §1

[9] = CNS SNB75 cell line, read-out: Cytotoxic activity (GI50), CNS
[10] = SNB75 CNS cell line, read-out: GI50

Row | Compound | GI50 [1] [µM] | GI50 [2] [µM] | GI50 (CNS SNB75 cell line; [9]) [µM] | GI50 (CNS SNB75 cell line; [10]) [µM] | selective cytotoxicity on human CNS tumor cell lines [3] | GI50 [4] [µM] | GI50 [5] [µM] | GI50 [6] [µM] | GI50 [7] [µM] | GI50 ([3]; Homo sapiens, CNS cell lines, no single line specified, read-out: Cytotoxic activity (GI50), CNS) [µM] | inhibition of GAR-Tfase [8] | GI50 (CNS U251 cell line) [µM]
1 | CCOC(=O)CCC(NC(=O)c1ccc(N2CCN(c3c(C)nc(N)[nH]c3=O)CC2)cc1)C(=O)OCC (stereo not shown) [Compound 8, Diethyl N-[4-[4-(2-Amino-6-methyl-4(3H)-oxopyrimidin-5-yl)piperazin-1-yl]benzoyl]glutamic acid] | > 100 | > 100 | < 0.01 | < 0.01 | selective cytotoxicity | > 100 | > 100 | > 100 | > 100 | – | – | –
2 | Cc1nc(N)[nH]c(=O)c1N1CCN(c2ccc(C(=O)O)cc2)CC1 [Compound 7, 4-[4-(2-Amino-6-methyl-4(3H)-oxopyrimidin-5-yl)piperazin-1-yl]benzoic acid] | > 100 | 1.39 | – | – | – | > 100 | > 100 | > 100 | > 100 | > 100 | – | –
3 | Nc1nc2c(c(=O)[nH]1)CC(CCc1ccc(C(=O)N[C@@H](CCC(=O)O)C(=O)O)cc1)CN2 (stereo partly shown) [DDATHF, 5,10-dideaza-5,6,7,8-tetrahydrofolic acid] | – | – | – | – | – | – | – | – | – | – | potent inhibitor | –
4 | Cc1nc(N)[nH]c(=O)c1N1CCN(c2ccc([N+](=O)[O-])cc2)CC1 [Compound 10, 2-Amino-6-methyl-5-[4-(4-nitrophenyl)piperazin-1-yl]pyrimidin-4(3H)-one] | > 100 | > 100 | < 0.01 | < 0.01 | selective cytotoxicity | > 100 | > 100 | > 100 | > 100 | – | – | –
5 | Cc1nc(N)[nH]c(=O)c1N1CCN(c2ccc(C(=O)NC(CCC(=O)O)C(=O)O)cc2)CC1 (stereo not shown) [Compound 9, N-[4-[4-(2-Amino-6-methyl-4-(3H)-oxopyrimidin-5-yl)piperazin-1-yl]benzoyl]glutamic acid] | > 100 | > 100 | < 0.01 | < 0.01 | selective cytotoxicity | > 100 | > 100 | > 100 | > 100 | – | – | –
6 | Cc1nc(N)[nH]c(=O)c1N1CCN(c2ccc(S(N)(=O)=O)cc2)CC1 [Compound 12, 4-[4-(2-Amino-6-methyl-4-(3H)-oxopyrimidin-5-yl)-piperazin-1-yl]benzenesulfonamide] | > 100 | > 100 | 0.1 | – | selective cytotoxicity | > 100 | > 100 | > 100 | > 100 | – | – | –
7 | Cc1nc(N)[nH]c(=O)c1N1CCN(c2ccc(C#N)cc2)CC1 [Compound 6, 4-[4-(2-Amino-6-methyl-4(3H)-oxopyrimidin-5-yl)piperazin-1-yl]benzonitrile] | > 100 | > 100 | 0.04 | – | selective cytotoxicity | > 100 | > 100 | > 100 | 93 | – | – | –
8 | Cc1nc(N)[nH]c(=O)c1N1CCN(c2ccc(S(=O)(=O)N(Cc3ccccc3)Cc3ccccc3)cc2)CC1 [Compound 11] | 4.8 to 79 | 3.1 to 27 | – | – | – | 1.9 to 3.5 | 2.1 to 37 | 55 | 0.7 to 16 | – | – | 3.68

Reference: patent US5670508A, “2-amino-6-alkyl-5-(4-substituted-1-piperazinyl) pyrimidin-4-ones, the preparation and use thereof” (National Science Council, priority 1995, dated 1997)
